This is an account of results in publication PMC4516224 (Pharmaceutical research, 2008).

The conditions of data set [1]: rabbit; in the absence of an inhibitor.
Data set [2] relates to rPCEC. The data set can be described thus: Cell proliferation assay. The settings on record: steroid 500 μM with erythromycin, 12 h, data not shown. In kind it is cell-based, rabbit.
In data set [3] the test system is rPCEC. The data set can be described thus: Cellular accumulation of [14C] erythromycin in rPCEC. In kind it is cell-based, rabbit.
A further data set addresses MRP2 (Homo sapiens, UniProt Q92887). The data set can be described thus: Bi-directional transport across MDCK-MRP2 cell monolayers. It is filed as in vitro ADME. Conditions: pH 7.4.
In the next data set the target is P-gp (Homo sapiens, UniProt P08183). The data set can be described thus: Bi-directional transport across MDCK-MDR1 cell monolayers. In kind it is in vitro ADME. Conditions: MDCK-MDR1, pH 7.4.
P-gp, sequence (P08183 whole entry): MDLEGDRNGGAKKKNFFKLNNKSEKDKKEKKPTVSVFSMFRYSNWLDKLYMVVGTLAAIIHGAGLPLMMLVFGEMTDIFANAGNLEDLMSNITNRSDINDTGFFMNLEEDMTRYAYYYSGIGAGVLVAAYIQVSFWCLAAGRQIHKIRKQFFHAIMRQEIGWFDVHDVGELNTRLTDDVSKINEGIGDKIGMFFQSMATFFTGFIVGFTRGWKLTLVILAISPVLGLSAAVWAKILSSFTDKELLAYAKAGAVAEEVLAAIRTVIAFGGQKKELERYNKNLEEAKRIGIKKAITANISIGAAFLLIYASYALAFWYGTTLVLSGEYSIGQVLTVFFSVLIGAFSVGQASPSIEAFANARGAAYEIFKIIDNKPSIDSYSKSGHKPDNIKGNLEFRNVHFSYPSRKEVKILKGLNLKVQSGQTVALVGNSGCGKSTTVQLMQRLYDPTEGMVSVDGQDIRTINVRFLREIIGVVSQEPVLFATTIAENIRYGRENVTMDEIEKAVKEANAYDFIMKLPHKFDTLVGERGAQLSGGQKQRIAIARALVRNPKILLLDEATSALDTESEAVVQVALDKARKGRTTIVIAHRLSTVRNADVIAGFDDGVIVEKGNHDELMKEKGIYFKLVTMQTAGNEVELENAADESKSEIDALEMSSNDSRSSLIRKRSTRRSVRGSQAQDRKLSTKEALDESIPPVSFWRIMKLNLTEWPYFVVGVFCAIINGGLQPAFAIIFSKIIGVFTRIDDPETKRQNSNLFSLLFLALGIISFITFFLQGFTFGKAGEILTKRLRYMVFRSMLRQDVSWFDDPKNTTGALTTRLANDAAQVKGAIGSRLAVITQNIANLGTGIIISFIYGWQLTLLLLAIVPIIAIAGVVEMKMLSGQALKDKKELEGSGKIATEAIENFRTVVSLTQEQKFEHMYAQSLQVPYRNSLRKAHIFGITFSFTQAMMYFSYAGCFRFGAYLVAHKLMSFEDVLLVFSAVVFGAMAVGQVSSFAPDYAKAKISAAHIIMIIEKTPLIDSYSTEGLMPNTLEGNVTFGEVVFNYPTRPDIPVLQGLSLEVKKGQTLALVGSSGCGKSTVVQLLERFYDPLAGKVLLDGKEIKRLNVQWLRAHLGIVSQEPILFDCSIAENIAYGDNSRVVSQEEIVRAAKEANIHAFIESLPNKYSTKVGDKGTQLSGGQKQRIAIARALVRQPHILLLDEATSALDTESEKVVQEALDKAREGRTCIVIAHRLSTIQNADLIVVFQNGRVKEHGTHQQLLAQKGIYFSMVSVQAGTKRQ

MRP2, sequence (Q92887 whole entry): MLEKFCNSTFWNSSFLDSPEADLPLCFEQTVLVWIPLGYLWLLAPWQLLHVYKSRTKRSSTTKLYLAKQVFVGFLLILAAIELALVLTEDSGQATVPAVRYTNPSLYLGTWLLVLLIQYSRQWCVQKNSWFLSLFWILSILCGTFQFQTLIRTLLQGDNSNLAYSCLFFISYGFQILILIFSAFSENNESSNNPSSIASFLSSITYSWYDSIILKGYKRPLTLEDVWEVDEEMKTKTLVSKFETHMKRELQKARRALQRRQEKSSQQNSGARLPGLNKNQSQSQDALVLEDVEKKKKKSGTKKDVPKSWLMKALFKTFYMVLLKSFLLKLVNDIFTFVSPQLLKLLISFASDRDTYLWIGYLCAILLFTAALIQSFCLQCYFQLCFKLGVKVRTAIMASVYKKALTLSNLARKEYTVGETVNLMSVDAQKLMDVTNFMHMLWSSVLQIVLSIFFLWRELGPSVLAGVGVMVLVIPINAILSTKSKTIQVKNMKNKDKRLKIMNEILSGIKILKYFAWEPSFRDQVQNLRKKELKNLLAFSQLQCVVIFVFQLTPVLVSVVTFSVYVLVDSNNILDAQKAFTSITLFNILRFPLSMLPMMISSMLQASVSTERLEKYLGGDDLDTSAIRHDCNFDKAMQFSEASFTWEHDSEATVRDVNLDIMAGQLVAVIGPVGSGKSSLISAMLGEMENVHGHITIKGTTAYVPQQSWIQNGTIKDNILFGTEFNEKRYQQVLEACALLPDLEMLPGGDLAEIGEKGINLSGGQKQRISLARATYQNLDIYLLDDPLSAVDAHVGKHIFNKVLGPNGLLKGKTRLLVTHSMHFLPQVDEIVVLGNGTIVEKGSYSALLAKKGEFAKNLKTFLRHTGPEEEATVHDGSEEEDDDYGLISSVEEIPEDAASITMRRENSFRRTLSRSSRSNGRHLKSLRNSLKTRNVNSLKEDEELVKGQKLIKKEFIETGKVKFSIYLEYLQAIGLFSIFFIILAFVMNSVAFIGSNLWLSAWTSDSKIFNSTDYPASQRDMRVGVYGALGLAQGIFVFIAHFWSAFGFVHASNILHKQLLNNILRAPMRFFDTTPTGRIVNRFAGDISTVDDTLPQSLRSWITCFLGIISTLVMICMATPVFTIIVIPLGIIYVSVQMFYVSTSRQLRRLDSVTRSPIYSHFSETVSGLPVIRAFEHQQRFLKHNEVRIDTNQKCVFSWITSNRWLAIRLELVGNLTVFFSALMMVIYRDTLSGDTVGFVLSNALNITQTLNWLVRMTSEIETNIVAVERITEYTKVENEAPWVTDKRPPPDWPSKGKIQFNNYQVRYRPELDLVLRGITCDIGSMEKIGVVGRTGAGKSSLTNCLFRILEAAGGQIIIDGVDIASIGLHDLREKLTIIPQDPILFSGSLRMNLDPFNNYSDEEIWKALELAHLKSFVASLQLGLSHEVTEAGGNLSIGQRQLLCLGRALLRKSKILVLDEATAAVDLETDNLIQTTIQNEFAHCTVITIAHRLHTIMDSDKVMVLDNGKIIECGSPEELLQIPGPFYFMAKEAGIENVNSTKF

Consider `CC[C@H]1OC(=O)[C@H](C)[C@@H](O[C@H]2C[C@@](C)(OC)[C@@H](O)[C@H](C)O2)[C@H](C)[C@@H](O[C@@H]2O[C@H](C)C[C@H](N(C)C)[C@H]2O)[C@](C)(O)C[C@@H](C)C(=O)[C@H](C)[C@@H](O)[C@]1(C)O` [Ery, erythromycin], for which the “Corneal absorption rate constant (ka) of erythromycin” value in data set [1] is 4.54±0.62×10^−5 min^−1.

Take `C[C@H]1C[C@@H]2[C@H]([C@@H](O)C[C@@]3(C)[C@H]2CC[C@]3(O)C(=O)CO)[C@@]2(C)C=CC(=O)C=C12` [MPL, 6α-methyl prednisolone]: the “Cellular toxicity (percentage of viable cells vs control)” value in the data set on rPCEC [2] was “not toxic”. The “Cellular accumulation of [^14C] erythromycin increased by, relative to control” value with rPCEC [3] ([14C] erythromycin 0.25 μCi/ml, 15 min, steroid 500 μM) worked out at 375%. In addition, in the data set on rPCEC [3] (steroid 500 μM), the “Inhibition of erythromycin efflux” value is given as “complete inhibition”.

Take `C[C@]12C=CC(=O)C=C1CC[C@@H]1[C@@H]2[C@@H](O)C[C@@]2(C)[C@H]1CC[C@]2(O)C(=O)CO` [PL, prednisolone]: the “Cellular toxicity (percentage of viable cells vs control)” value in the data set on rPCEC [2] is recorded as “not toxic”. Further, the “Inhibition of erythromycin efflux” value in the data set with rPCEC [3] (steroid 500 μM) is listed as approximately 80%.

Regarding `CN(C)C(=O)CCSC(SCCC(=O)O)c1cccc(/C=C/c2ccc3ccc(Cl)cc3n2)c1` (stereo not shown) [MK571], in the data set on rPCEC [3] ([14C] erythromycin 0.25 μCi/ml, 15 min, GF120918 2 μM, MK571 50 μM), the “Cellular accumulation of [^14C] erythromycin in the presence of specific inhibitor, relative to control” value stood at 310%.

`C[C@]12C=CC(=O)C=C1CC[C@@H]1[C@@H]2C(=O)C[C@@]2(C)[C@H]1CC[C@]2(O)C(=O)CO` [PS, prednisone]: at MRP2, the Papp A→B (usually the apparent permeability from the apical to the basolateral side of a cell layer) at 3.5 h, 10 μM amounted to 6.04 ± 0.15 ×10⁻⁶ cm/s and the Papp B→A (commonly the apparent permeability from the basolateral to the apical side of a cell layer) at 3.5 h, 10 μM was determined as 17.8 ± 0.22 ×10⁻⁶ cm/s. On P-gp, this compound registered a Papp A→B at 3.5 h, 10 μM of 6.97 ± 0.21 ×10⁻⁶ cm/s and a Papp B→A at 3.5 h, 10 μM of 17.7 ± 0.47 ×10⁻⁶ cm/s. Moreover, the “Cellular toxicity (percentage of viable cells vs control)” value in the data set with rPCEC [2] is “not toxic”. Further, the “Inhibition of erythromycin efflux” value in the data set on rPCEC [3] (steroid 500 μM) was approximately 80%.
